Data from patent US9260408B2, “Dihydroquinoline-2-one derivatives” (Hoffmann-La Roche Inc., priority 2011, dated 2016).
pEC50: −log10 of the molar value.

Assays:
human CYP11B2 = target: T1, human CYP11B2 (Homo sapiens, UniProt P19099); assay: G-402 cellular enzyme assay, human CYP11B2 (aldosterone release, HTRF); type: cell-based; conditions: G-402 cells expressing human CYP11B2; 1 μM Deoxycorticosterone
T1 construct: expressed in transfected cells
T1 sequence (P19099 25-503): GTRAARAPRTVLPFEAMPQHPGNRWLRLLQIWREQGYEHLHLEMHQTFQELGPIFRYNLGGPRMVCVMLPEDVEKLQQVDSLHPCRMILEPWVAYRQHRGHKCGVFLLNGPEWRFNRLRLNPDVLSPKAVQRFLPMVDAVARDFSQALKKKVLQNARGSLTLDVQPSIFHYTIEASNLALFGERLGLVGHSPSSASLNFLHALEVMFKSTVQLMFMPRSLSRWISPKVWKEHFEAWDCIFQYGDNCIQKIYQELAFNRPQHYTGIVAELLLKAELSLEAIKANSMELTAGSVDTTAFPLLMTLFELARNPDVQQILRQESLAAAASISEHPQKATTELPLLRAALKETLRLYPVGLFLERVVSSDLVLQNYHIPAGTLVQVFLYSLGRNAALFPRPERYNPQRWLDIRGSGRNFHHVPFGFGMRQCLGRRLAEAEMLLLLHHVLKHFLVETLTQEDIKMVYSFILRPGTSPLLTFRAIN
Excerpt: (§1) Herein we identified the use of the G-402 cell line as a host cell to ectopically express (transiently or stably) enzymes of the CYP11 family. Specifically we developed stable G-402 cells expressing ectopically human CYP11B1, human CYP11B2, human CYP11A1, cynomolgus CYP11B1 or cynomolgus CYP11B2 enzyme activity. Importantly the identified cell line G-402 expresses co-factors (adrenodoxin and adrenodoxin reductase) important for the activity of the CYP11 family and no relevant enzyme activity of the CYP11 family (in comparison to H295R cells) was detected in these cells. Therefore the G-402 cell line is uniquely suited as a host cell for the ectopic expression of enzymes from the CYP11 family.
(§2) G-402 cells can be obtained from ATCC(CRL-1440) and were originally derived from a renal leiomyoblastoma.
(§3) The expression plasmids contains the ORF for either human/cyno CYP11B1 or CYP11B2 under the control of a suitable promoter (CMV-promoter) and a suitable resistance marker (neomycin). Using standard techniques the expression plasmid is transfected into G-402 cells and these cells are then selected for expressing the given resistance markers. Individual cell-clones are then selected and assessed for displaying the desired enzymatic activity using 11-Deoxycorticosterone (Cyp11B2) or 11-Deoxycortisol (Cyp11B1) as a substrate.
(§4) G-402 cells expressing CYP11 constructs were established as described above and maintained in McCoy's 5a Medium Modified, ATCC Catalog No. 30-2007 containing 10% FCS and 400 μg/ml G418 (Geneticin) at 37° C. under an atmosphere of 5% CO2/95% air. Cellular enzyme assays were performed in DMEM/F12 medium containing 2.5% charcoal treated FCS and appropriate concentration of substrate (0.3-10 uM 11-Deoxycorticosterone, 11-Deoxycortisol or Corticosterone). For assaying enzymatic activity, cells were plated onto 96 well plates and incubated for 16 h. An aliquot of the supernatant is then transferred and analyzed for the concentration of the expected product (Aldosterone for CYP11B2; Cortisol for CYP11B1). The concentrations of these steroids can be determined using HTRF assays from CisBio analyzing either Aldosterone or Cortisol.
(§5) Inhibition of the release of produced steroids can be used as a measure of the respective enzyme inhibition by test compounds added during the cellular enzyme assay. The dose dependent inhibition of enzymatic activity by a compound is calculated by means of plotting added inhibitor concentrations (x-axes) vs. measured steroid/product level (y-axes). The inhibition is then calculated by fitting the following 4-parameter sigmoidal function (Morgan-Mercer-Flodin (MMF) model) to the raw data points using the least squares method:
(§6) [formula] wherein, A is the maximum y value, B is the EC50 factor determined using XLFit, C is the minimum y value and D is the slope value.
(§7) EC50 values for compounds claimed herein were tested with the G402-based assay system described. Cyp11B2 enzyme activity was tested in presence of 1 μM Deoxycorticosterone and variable amounts of inhibitors; Cyp11B1 enzyme activity was tested in presence of 1 μM Deoxycortisol and variable amounts of inhibitors.

human CYP11B1 = target: T2, human CYP11B1 (Homo sapiens, UniProt P15538); assay: G-402 cellular enzyme assay, human CYP11B1 (cortisol release, HTRF); type: cell-based; conditions: G-402 cells expressing human CYP11B1; 1 μM Deoxycortisol
T2 construct: expressed in transfected cells
T2 sequence (P15538 25-503): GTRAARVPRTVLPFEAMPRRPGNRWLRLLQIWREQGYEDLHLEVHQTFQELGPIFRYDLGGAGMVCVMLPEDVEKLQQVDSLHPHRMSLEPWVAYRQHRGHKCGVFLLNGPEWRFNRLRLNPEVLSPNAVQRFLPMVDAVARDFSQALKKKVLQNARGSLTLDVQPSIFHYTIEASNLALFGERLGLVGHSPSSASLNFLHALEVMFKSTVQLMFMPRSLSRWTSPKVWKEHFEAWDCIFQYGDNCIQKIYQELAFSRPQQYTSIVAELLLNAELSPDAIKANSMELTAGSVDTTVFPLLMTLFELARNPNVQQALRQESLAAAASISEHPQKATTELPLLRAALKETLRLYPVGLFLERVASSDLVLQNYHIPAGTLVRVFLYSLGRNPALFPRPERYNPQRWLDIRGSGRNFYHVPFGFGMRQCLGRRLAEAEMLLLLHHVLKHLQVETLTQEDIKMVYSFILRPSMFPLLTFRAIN
Excerpt: as §1, §2, §3, §4, §5, §6, §7

| SMILES | pEC50 (human CYP11B2) | pEC50 (human CYP11B1) |
| --- | --- | --- |
| CN1C(=O)CCc2cc(-c3cncc(N4CC5(CN(C(=O)OC(C)(C)C)C5)C4)n3)ccc21 [Example 28, 6-[6-(1-methyl-2-oxo-1,2,3,4-tetrahydro-quinolin-6-yl)-pyrazin-2-yl]-2,6-diaza-spiro[3.3]heptane-2-carboxylic acid tert-butyl ester] | 6.92 | 6.11 |
| CCC(=O)N1CCC[C@H](Oc2cncc(-c3ccc4c(c3)CCC(=O)N4C)c2)C1 [Example 81] | 6.76 | 5.33 |
| CCS(=O)(=O)NCc1cncc(-c2ccc3c(n2)CCC(=O)N3C)c1 [Example 32, Ethanesulfonic acid [5-(5-methyl-6-oxo-5,6,7,8-tetrahydro-[1,5]naphthyridin-2-yl)-pyridin-3-ylmethyl]-amide] | 5.89 | < 5.00 |
| CCS(=O)(=O)NC(C)c1cncc(-c2ccc3c(c2)CCC(=O)N3C)c1 (single isomer, unassigned) [Example 174, Ethanesulfonic acid {(S or R)-1-[5-(1-methyl-2-oxo-1,2,3,4-tetrahydro-quinolin-6-yl)-pyridin-3-yl]-ethyl}-amide] | 7.48 | 5.91 |
| CCS(=O)(=O)NCCOc1cncc(-c2ccc3c(c2)CCC(=O)N3C)c1 [Example 151, ethanesulfonic acid {2-[5-(1-methyl-2-oxo-1,2,3,4-tetrahydro-quinolin-6-yl)-pyridin-3-yloxy]-ethyl}-amide] | 8.30 | 7.05 |
| CC(C)CC(=O)NCc1cncc(-c2ccc3c(c2)CCC(=O)N3C)c1 [Example 77] | 7.38 | 6.65 |
| CN1C(=O)CCc2cc(-c3cncc(OC[C@@H]4CCN4C(=O)OC(C)(C)C)c3)ccc21 [Example 45, (S)-2-[5-(1-Methyl-2-oxo-1,2,3,4-tetrahydro-quinolin-6-yl)-pyridin-3-yloxymethyl]-azetidine-1-carboxylic acid tert-butyl ester] | 7.06 | 6.06 |
| CN1C(=O)CCc2cc(-c3cncc(CNS(=O)(=O)CC(F)(F)F)c3)ccc21 [Example 162, 2,2,2-Trifluoro-ethanesulfonic acid [5-(1-methyl-2-oxo-1,2,3,4-tetrahydro-quinolin-6-yl)-pyridin-3-ylmethyl]-amide] | 7.21 | 5.54 |
| CCS(=O)(=O)NC(C)c1cncc(-c2cc3c(cc2F)N(C)C(=O)CC3)c1 (racemic) [Example 178, (rac)-Ethanesulfonic acid {1-[5-(7-fluoro-1-methyl-2-oxo-1,2,3,4-tetrahydro-quinolin-6-yl)-pyridin-3-yl]-ethyl}-amide] | 8.00 | 6.27 |
| CN1C(=O)CCc2cc(-c3cncc(CNC(=O)c4cn(CC(F)(F)F)nc4C4CC4)c3)ccc21 [Example 96] | 7.66 | 5.78 |
| CN1C(=O)CCc2cc(-c3cncc(CNS(=O)(=O)c4cccc(Cl)c4)c3)ccc21 [Example 152, 3-Chloro-N-[5-(1-methyl-2-oxo-1,2,3,4-tetrahydro-quinolin-6-yl)-pyridin-3-ylmethyl]-benzenesulfonamide] | 6.81 | 5.32 |
| CC(N[S@+]([O-])C(C)(C)C)c1cncc(-c2ccc3c(c2)CCC(=O)N3C)c1 (single isomer, unassigned) [Example 56, (R)-2-Methyl-propane-2-sulfinic acid {(S or R)-1-[5-(1-methyl-2-oxo-1,2,3,4-tetrahydro-quinolin-6-yl)-pyridin-3-yl]-ethyl}-amide] | 7.40 | 6.23 |
| CCS(=O)(=O)NCc1cncc(-c2ccc3c(c2)CCC(=O)N3)c1 [Example 55, ethanesulfonic acid [5-(2-oxo-1,2,3,4-tetrahydro-quinolin-6-yl)-pyridin-3-ylmethyl]-amide] | 6.17 | 4.95 |
| CN1C(=O)CCc2cc(-c3cncc(CNC(=O)C4CC4)c3)ccc21 [Example 41, Cyclopropanecarboxylic acid [5-(1-methyl-2-oxo-1,2,3,4-tetrahydro-quinolin-6-yl)-pyridin-3-ylmethyl]-amide] | 7.17 | 5.25 |
| CCS(=O)(=O)N1CC[C@H](Oc2cncc(-c3ccc4c(c3)CCC(=O)N4C)c2)C1 [Example 164, 6-[5-((S)-1-Ethanesulfonyl-pyrrolidin-3-yloxy)-pyridin-3-yl]-1-methyl-3,4-dihydro-1H-quinolin-2-one] | 8.05 | 6.68 |

Now from value to compound:

| pEC50 (human CYP11B2) | pEC50 (human CYP11B1) | SMILES |
| --- | --- | --- |
| 9.00 | 7.59 | CCS(=O)(=O)NCCOc1cncc(-c2cc3c(cc2F)N(C)C(=O)CC3)c1 [Example 243, Ethanesulfonic acid {2-[5-(7-fluoro-1-methyl-2-oxo-1,2,3,4-tetrahydro-quinolin-6-yl)-pyridin-3-yloxy]-ethyl}-amide] |
| 8.22 | 6.76 | Cc1c(CNC(=O)c2ncccc2Cl)cncc1-c1ccc2c(c1)CCC(=O)N2C [Example 224, 3-Chloro-pyridine-2-carboxylic acid [4-methyl-5-(1-methyl-2-oxo-1,2,3,4-tetrahydro-quinolin-6-yl)-pyridin-3-ylmethyl]-amide] |
| 7.89 | 5.33 | Cc1noc(C)c1C(=O)NCc1cncc(-c2cc3c(cc2F)N(C)C(=O)CC3)c1C [Example 246, 3,5-Dimethyl-isoxazole-4-carboxylic acid [5-(7-fluoro-1-methyl-2-oxo-1,2,3,4-tetrahydro-quinolin-6-yl)-4-methyl-pyridin-3-ylmethyl]-amide] |
| 7.27 | 6.21 | CCC(=O)NC(C)c1cncc(-c2ccc3c(c2)CCC(=O)N3C)c1C (single isomer, unassigned) [Example 266, N-{(R or S)-1-[4-Methyl-5-(1-methyl-2-oxo-1,2,3,4-tetrahydro-quinolin-6-yl)-pyridin-3-yl]-ethyl}-propionamide] |
| 8.05 | 6.45 | CN(Cc1cncc(-c2ccc3c(c2)CCC(=O)N3C)c1Cl)C(=O)c1ncccc1Cl [Example 228, 3-Chloro-pyridine-2-carboxylic acid [4-chloro-5-(1-methyl-2-oxo-1,2,3,4-tetrahydro-quinolin-6-yl)-pyridin-3-ylmethyl]-methyl-amide] |
| 7.29 | 5.32 | CCC(=O)NCc1cncc(-c2cc3c(cc2F)N(C)C(=O)CC3)c1 [Example 212, N-[5-(7-Fluoro-1-methyl-2-oxo-1,2,3,4-tetrahydro-quinolin-6-yl)-pyridin-3-ylmethyl]-propionamide] |
| 8.10 | 6.84 | CN(Cc1cncc(-c2cc3c4c(c2)CCN4C(=O)CC3)c1)C(=O)c1ncccc1Cl [Example 237, 3-Chloro-pyridine-2-carboxylic acid methyl-[5-(4-oxo-1,2,5,6-tetrahydro-4H-pyrrolo[3,2,1-ij]quinolin-8-yl)-pyridin-3-ylmethyl]-amide] |
